In brackets after ≈: the same amount, converted by molar mass. Several values for one entry are separate records, joined by “and”; a condition that tells them apart may be missing. Identical values can stand only once.
How the values were obtained:
[1] = pH solubility and pKa determination; assay type: physicochemical; conditions: for solubility at 24 h: aqueous HCl/NaOH solution, aqueous buffer, thermodynamic from solid
Experimental: Solutions at pH values of 1 to 12 were prepared using HCl and NaOH. At first, 10^−1 N, 10^−2 N, 10^−3 N, 10^−4 N, 10^−5 N, and 10^−6 N of HCl and NaOH solutions were prepared and their pH values were measured with a pH meter (Metrohm 827 pH lab, Zurich, Switzerland). One milliliter of the 10^−4 N, 10^−5 N, and 10^−6 N of HCl and NaOH solutions was withdrawn and diluted in a 100 mL flask for more coordination. In each prepared solution (n = 3), excess ABN401 was dissolved and mixed for 24 h. All samples were centrifuged for 1 min at 12,000 rpm. The pH solubility of ABN401 was analyzed by HPLC and the pKa was determined by plotting a graph of log(solubility) against pH.

[2] = Dynamic vapor sorption; assay type: physicochemical; conditions: 25 °C, 5% to 95% RH
Experimental: Moisture sorption analyses were utilized using a VTI-SA vapor sorption analyzer (TA Instruments, New Castle, DE, USA). API was placed into the sample holder. The percentage of relative humidity (% RH) in the chamber was increased from 5% to 95% RH for moisture adsorption, followed by a decrease in % RH from 95% to 5% for moisture desorption. A drying phase (i.e., 40 °C, less than 0.01% weight loss in 2 min) was set to run before to the analysis. The temperature was set at a 25 °C throughout the analysis. The program criteria were set to 0.0001% weight change or 2 min stability of weight gained or lost before the program could proceed to the next set parameter.

[3] = Pharmacokinetic study in beagle dogs; assay type: in vivo; conditions: for BA: PO; for BA / Tmax / AUC(0-inf) / AUC(0-t) / Cmax / MRT last / half-life: beagle dogs
Excerpt: Male beagle dogs were purchased from Marshall, Beijing, China. They were housed under controlled humidity, temperature, and a 12L:12D lighting schedule. Before the experiment, the animals were fed less than 300 g/day for 2 days and those with a body weight around 7.0 ± 0.5 kg were selected for the pharmacokinetic study (n = 3). They were fasted overnight before the experiments but allowed to drink water. This study was reviewed, assessed, and approved by the Institutional Animal Care and Use Committee (IACUC) of the Korea Institute of Toxicology (KIT). The project identification codes were N117008 and N116047, signed on 31 May 2017. For the experiments, 0.5-mL blood samples were collected from each animal at selected intervals and loaded into K2-EDTA tubes. After centrifugation at 13,200 rpm for 5 min, quantitative analysis was performed using LC-MS/MS. Acetic acid buffer (0.1 M) at pH 4.0 with 20% PEG400 was selected as the intravenous solution for ABN401 and WinNonlinTM (Version 5.2.1, Pharsight, USA) was used to calculate the pharmacokinetic parameters (i.e., T1/2: terminal half-life, Cmax: maximum observed peak concentration, Tmax: time to reach Cmax, AUClast: area under the time-concentration curve from zero to the last quantifiable time-point, AUCinf: area under the time-concentration curve from zero to infinity, MRTlast: mean residence time from zero to the last quantifiable time-point). The bioavailability (BA) of each dose was calculated using the following equation:Bioavailability = (AUClast_po/AUClast_iv) × 100(5)
HPLC system (Agilent 1200, Santa Clara, CA, USA), consisting of a binary pump, a degasser, and a refrigerated autosampler (at 10 °C), was used in this study. Analytical samples were separated on the Agilent Eclipse XDB-C18 (3.5 um, 2.1 × 50 mm) at 23 °C. The mobile phase was composed of solvent A (10 mM ammonium formate in purified water) and solvent B (0.1 % formic acid in acetonitrile) and delivered at a flow rate of 0.3 mL/min. In this study, the gradient separation (i.e., the initial condition of the mobile phase consisted of 80% of solvent A and 20% of solvent B, then solvent A was decreased to 0% within 2 min and maintained for 5 min, followed by an increase to 80% within 0.2 min, maintained until 10 min) was used with a 10-min run time per sample. The MS system was composed of an API 4000 Sciex triple quadruple mass spectrometer (AB Sciex, Framingham, MA, USA). The triple quadrupole mass spectrometer was equipped with a turbo ion spray source. The MS/MS detection involved multiple reaction-monitoring in the positive ionization mode. The intensive tracer ion mass for each compound was 567.5 → 467.2 for ABN401 and 237.3 → 194.11 for carbamazepine as an internal standard. The conditions for the electrospray interface were: curtain gas, 20 psi; collision gas, medium; ion spray voltage, 5000 V; temperature, 500°C; ion source gas 1, 50 psi and ion source gas 2, 55 psi. The optimized voltage parameters for the analytes were as follows: declustering potential (61 V), entrance potential (10 V), collision energy (28 V), and collision cell exit potential (12 V). Data acquisition, quantification, and calculations were performed with the Analyst software version 1.4.2 (AB Sciex, Framingham, MA, USA).

[4] = parameters: method as in doi:10.1016/j.dmpk.2016.10.205; conditions: rats; cited from earlier work
[5] = male, beagle, dog, plasma, iv, 1 mg/kg, mean ± SD
[6] = male, beagle, dog, plasma, po, 1 mg/kg, capsule with MCC, mean ± SD
[7] = male, beagle, dog, plasma, po, 5 mg/kg, capsule with MCC, mean ± SD
[8] = male, beagle, dog, plasma, po, 5 mg/kg, capsule without MCC, mean ± SD
[9] = male, beagle, dog, plasma, po, 10 mg/kg, capsule with MCC, mean ± SD

CN1CCN(Cc2ccc(-c3cnc(N4CCOC(Cn5nnc6ncc(-c7cnn(C)c7)nc65)C4)nc3)cc2)CC1 (centres unmarked) [ABN401]
pKa at 24 h ([1]; aqueous HCl and NaOH solutions, pH 1 to 12, from plot of log(solubility) against pH, read-out: apparent pKa): 7.49
solubility at 24 h ([1]; above neutral pH): ≤ 0.01 mg/mL
solubility at 24 h ([1]; pH 2.28 (highest)): 26.9 mg/mL (≈ 47.4 mM)
moisture adsorption [2]: relatively less adsorptive to moisture
BA ([3]; 1 mg/kg, capsule with MCC, mean ± SD): 28.3 ± 15.8%
BA ([3]; 5 mg/kg, capsule with MCC, mean ± SD): 30.7% and 30.7 ± 1.7%
BA ([3]; 5 mg/kg, capsule without MCC, mean ± SD): 30.7% and 30.7 ± 15.1%
BA ([3]; 10 mg/kg, capsule with MCC, mean ± SD): 11.3 ± 2.7%
Tmax ([3]; male, beagle, dog, plasma, iv, 1 mg/kg): 0.083 h
AUC(0-inf) [3, 5]: 287 ± 108 ng·h/mL
AUC(0-t) [3, 5]: 266 ± 105 ng·h/mL
Cmax [3, 5]: 308 ± 271 ng/mL
MRT last [3, 5]: 1.5 ± 0.7 h
half-life [3, 5]: 1.9 ± 0.7 h
AUC(0-inf) [3, 6]: 96.2 ± 40.7 ng·h/mL
AUC(0-t) [3, 6]: 75.4 ± 42 ng·h/mL
Cmax [3, 6]: 8 ± 3.8 ng/mL
MRT last [3, 6]: 7.6 ± 2.5 h
Tmax [3, 6]: 1.3 ± 0.6 h
half-life [3, 6]: 9.4 ± 3.2 h
AUC(0-inf) [3, 7]: 456 ± 28.5 ng·h/mL
AUC(0-t) [3, 7]: 409 ± 23 ng·h/mL
Cmax [3, 7]: 50.8 ± 12.4 ng/mL
MRT last [3, 7]: 8.6 ± 2.7 h
Tmax [3, 7]: 1.5 ± 0.7 h
half-life [3, 7]: 7.6 ± 4.5 h
AUC(0-inf) [3, 8]: 425 ± 218 ng·h/mL
AUC(0-t) [3, 8]: 409 ± 201 ng·h/mL
Cmax [3, 8]: 60.3 ± 29.1 ng/mL
MRT last [3, 8]: 6.4 ± 0.7 h
Tmax [3, 8]: 2 h
half-life [3, 8]: 4.9 ± 0.9 h
Tmax ([3]; male, beagle, dog, plasma, po, 10 mg/kg, across the doses 1, 5, 10 mg/kg): 1.3 to 2 h
AUC(0-inf) [3, 9]: 424 ± 186 ng·h/mL
AUC(0-t) [3, 9]: 302 ± 72 ng·h/mL
Cmax [3, 9]: 52.5 ± 13.5 ng/mL
MRT last [3, 9]: 6.3 ± 3.4 h
Tmax [3, 9]: 2 h
half-life [3, 9]: 7.7 ± 5.8 h
bioavailability ([3]; male, beagle, dog, plasma, oral, dogs, except at 10 mg/kg): ~30%
absolute bioavailability [4]: 45%
